# Measured values from patent publication US12331035B2, “Bicyclic compound and use thereof” (SK BIOPHARMACEUTICALS CO., LTD., priority 2019, dated 2025).
# Target: T1, PRMT5-MEP50 enzyme complex (Homo sapiens, UniProt O14744)
# T1 construct: purchased BPS Bioscience (USA) 51045
# Experiment: In vitro PRMT5 enzyme activity assay (methylation of histone H4 arginine H4R3, ELISA absorbance at 450 nm)
# Type: biochemical
# Conditions: S-adenosylmethionine, histone H4 peptide, 2 hours at room temperature, 8 points 10 μM to 0.128 nM
# Summary of the method: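 Human PRMT5-MEP50 (5 μg/mL working stock) with 2 μM SAM stock on histone H4 (1-20) peptide-coated plates, compound 8-point 1:5 series from 10 μM, 2 h at room temperature. H4R3 methylation detected by antibody/HRP ELISA, absorbance 450 nm; IC50 calculated.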
# T1 sequence (O14744 2-637 limits assumed): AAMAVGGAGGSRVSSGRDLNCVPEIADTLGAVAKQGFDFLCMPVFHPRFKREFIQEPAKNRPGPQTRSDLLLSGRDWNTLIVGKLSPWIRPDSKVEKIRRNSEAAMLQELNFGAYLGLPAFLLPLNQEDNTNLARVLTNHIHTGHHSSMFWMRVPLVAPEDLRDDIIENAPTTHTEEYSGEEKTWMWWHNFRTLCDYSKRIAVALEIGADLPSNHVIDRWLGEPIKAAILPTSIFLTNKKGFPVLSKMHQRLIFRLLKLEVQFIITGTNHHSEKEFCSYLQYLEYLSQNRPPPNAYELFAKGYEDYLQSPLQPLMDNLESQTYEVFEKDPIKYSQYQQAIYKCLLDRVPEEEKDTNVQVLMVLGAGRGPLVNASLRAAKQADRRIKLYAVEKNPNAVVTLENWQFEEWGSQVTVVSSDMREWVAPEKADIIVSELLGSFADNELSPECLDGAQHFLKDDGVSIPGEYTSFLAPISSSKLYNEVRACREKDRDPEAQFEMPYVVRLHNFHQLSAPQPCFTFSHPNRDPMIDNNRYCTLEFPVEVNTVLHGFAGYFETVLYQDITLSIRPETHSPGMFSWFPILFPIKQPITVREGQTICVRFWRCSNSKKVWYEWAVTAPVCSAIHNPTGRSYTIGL
# T1 sequence (Q9BQA1 2-342 partner limits assumed): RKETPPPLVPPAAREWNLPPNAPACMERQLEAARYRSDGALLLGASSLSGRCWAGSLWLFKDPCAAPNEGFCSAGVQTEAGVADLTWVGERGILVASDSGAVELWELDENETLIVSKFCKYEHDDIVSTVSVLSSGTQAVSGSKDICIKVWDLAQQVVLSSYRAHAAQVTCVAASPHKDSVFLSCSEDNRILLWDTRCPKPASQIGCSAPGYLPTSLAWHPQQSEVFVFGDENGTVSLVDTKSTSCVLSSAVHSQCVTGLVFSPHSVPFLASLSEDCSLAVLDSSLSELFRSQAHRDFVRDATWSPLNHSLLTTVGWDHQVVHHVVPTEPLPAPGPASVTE
row,IC50 [nM],Compound
1,1000 to 10000,"CC(=O)N1CCC(c2ccc3c(c2)CCN(C[C@H](O)CN2CCc4ccccc4C2)C3=O)CC1 [Example 67, 6-(1-acetyl-4-piperidyl)-2-[(2R)-3-(3,4-dihydro-1H-isoquinolin-2-yl)-2-hydroxy-propyl]-3,4-dihydroisoquinolin-1-one]"
2,100 to 1000,"O=C1c2ccc(Cl)nc2CCN1C[C@H](O)CN1CCc2ccccc2C1 [Example 75, 2-chloro-6-[(2R)-3-(3,4-dihydro-1H-isoquinolin-2-yl)-2-hydroxy-propyl]-7,8-dihydro-1,6-naphthyridin-5-one]"
3,100 to 1000,"CC(=O)N1CC(Oc2ccc3c(c2)CCN(C[C@H](O)CN2CCc4ccccc4C2)C3=O)C1 [Example 96, 6-(1-acetylazetidin-3-yl)oxy-2-[(2R)-3-(3,4-dihydro-1H-isoquinolin-2-yl)-2-hydroxy-propyl]-3,4-dihydroisoquinolin-1-one]"
4,1 to 100,"CC(=O)N1CC=C(c2ccc3c(c2)CCN(C[C@H](O)CN2CCc4ccccc4C2)C3=O)CC1 [Example 61, 6-(1-acetyl-3,6-dihydro-2H-pyridin-4-yl)-2-[(2R)-3-(3,4-dihydro-1H-isoquinolin-2-yl)-2-hydroxy-propyl]-3,4-dihydroisoquinolin-1-one]"
5,100 to 1000,"CCN(CC)C1CCN(c2ccc3c(c2)CCN(C[C@H](O)CN2CCc4ccccc4C2)C3=O)CC1 [Example 118, 6-[4-(diethylamino)-1-piperidyl]-2-[(2R)-3-(3,4-dihydro-1H-isoquinolin-2-yl)-2-hydroxy-propyl]-3,4-dihydroisoquinolin-1-one]"
6,100 to 1000,"CC(=O)N1CCC(COc2ccc3c(c2)CCN(C[C@H](O)CN2CCc4ccccc4C2)C3=O)CC1 [Example 83, 6-[(1-acetyl-4-piperidyl)methoxy]-2-[(2R)-3-(3,4-dihydro-1H-isoquinolin-2-yl)-2-hydroxy-propyl]-3,4-dihydroisoquinolin-1-one]"
7,1 to 100,"CCN1CCC(Oc2ccc3c(c2)C(C)(C)CN(C[C@H](O)CN2CCc4ccccc4C2)C3=O)CC1 [Example 131, 2-[(2R)-3-(3,4-dihydro-1H-isoquinolin-2-yl)-2-hydroxy-propyl]-6-[(1-ethyl-4-piperidyl)oxy]-4,4-dimethyl-3H-isoquinolin-1-one]"
8,1000 to 10000,"O=C1c2ccc(CN3CCOCC3)cc2CCN1C[C@H](O)CN1CCc2ccccc2C1 [Example 43, 2-[(2R)-3-(3,4-dihydro-1H-isoquinolin-2-yl)-2-hydroxy-propyl]-6-(morpholinomethyl)-3,4-dihydroisoquinolin-1-one]"
9,1000 to 10000,"O=C1c2ccc(NCc3cccnc3)cc2CCN1C[C@H](O)CN1CCc2ccccc2C1 [Example 22, 2-[(2R)-3-(3,4-dihydro-1H-isoquinolin-2-yl)-2-hydroxy-propyl]-6-(3-pyridylmethylamino)-3,4-dihydroisoquinolin-1-one]"
10,100 to 1000,"CC(=O)N1CCCC(Nc2ccc3c(c2)CCN(C[C@H](O)CN2CCc4ccccc4C2)C3=O)CC1 (stereo partly drawn) [Example 98, 6-[(1-acetylazepan-4-yl)amino]-2-[(2R)-3-(3,4-dihydro-1H-isoquinolin-2-yl)-2-hydroxy-propyl]-3,4-dihydroisoquinolin-1-one]"
11,100 to 1000,"CN(C)C(=O)C1CCN(c2ccc3c(c2)CCN(C[C@H](O)CN2CCc4ccccc4C2)C3=O)CC1 [Example 97, 1-[2-[(2R)-3-(3,4-dihydro-1H-isoquinolin-2-yl)-2-hydroxy-propyl]-1-oxo-3,4-dihydroisoquinolin-6-yl]-N,N-dimethyl-piperidine-4-carboxamide]"
12,1 to 100,"O=C1c2ccc(OC3CCN(C4COC4)CC3)cc2CCN1C[C@H](O)CN1CCc2ccccc2C1 [Example 136, 2-[(2R)-3-(3,4-dihydro-1H-isoquinolin-2-yl)-2-hydroxy-propyl]-6-[[1-(oxetan-3-yl)-4-piperidyl]oxy]-3,4-dihydroisoquinolin-1-one]"
13,1 to 100,"O=C1c2ccc(N3CCS(=O)(=O)CC3)cc2CCN1C[C@H](O)CN1CCc2ccccc2C1 [Example 49, 2-[(2R)-3-(3,4-dihydro-1H-isoquinolin-2-yl)-2-hydroxy-propyl]-6-(1,1-dioxo-1,4-thiazinan-4-yl)-3,4-dihydroisoquinolin-1-one]"
14,100 to 1000,"CCN(CC)C1CCN(c2ccc3c(c2)C(C)(C)CN(C[C@H](O)CN2CCc4ccccc4C2)C3=O)CC1 [Example 123, 6-[4-(diethylamino)-1-piperidyl]-2-[(2R)-3-(3,4-dihydro-1H-isoquinolin-2-yl)-2-hydroxy-propyl]-4,4-dimethyl-3H-isoquinolin-1-one]"
15,100 to 1000,"CC(=O)N1CCN(c2ccc3c(c2)CCN(C[C@H](O)CN2CCc4ccccc4C2)C3=O)C(=O)C1 [Example 86, 6-(4-acetyl-2-oxo-piperazin-1-yl)-2-[(2R)-3-(3,4-dihydro-1H-isoquinolin-2-yl)-2-hydroxy-propyl]-3,4-dihydroisoquinolin-1-one]"
16,1 to 100,"CC(=O)N1CCCN(c2ccc3c(c2)CCN(C[C@H](O)CN2CCc4ccccc4C2)C3=O)CC1 [Example 80, 6-(4-acetyl-1,4-diazepan-1-yl)-2-[(2R)-3-(3,4-dihydro-1H-isoquinolin-2-yl)-2-hydroxy-propyl]-3,4-dihydroisoquinolin-1-one]"

row,IC50 [nM],Compound
1,100 to 1000,"CN(C)C1CCN(c2ccc3c(c2)CCN(C[C@H](O)CN2CCc4ccccc4C2)C3=O)CC1 [Example 110, 2-[(2R)-3-(3,4-dihydro-1H-isoquinolin-2-yl)-2-hydroxy-propyl]-6-[4-(dimethylamino)-1-piperidyl]-3,4-dihydroisoquinolin-1-one]"
2,1 to 100,"O=C1c2ccc(N3CCOCC3)nc2CCN1C[C@H](O)CN1CCc2ccccc2C1 [Example 89, 6-[(2R)-3-(3,4-dihydro-1H-isoquinolin-2-yl)-2-hydroxy-propyl]-2-morpholino-7,8-dihydro-1,6-naphthyridin-5-one]"
3,100 to 1000,"CC(=O)N1CCC(Oc2ccc3c(c2)CCN(C[C@H](O)CN2CCc4ccccc4C2)C3=O)CC1 [Example 95, 6-[(1-acetyl-4-piperidyl)oxy]-2-[(2R)-3-(3,4-dihydro-1H-isoquinolin-2-yl)-2-hydroxy-propyl]-3,4-dihydroisoquinolin-1-one]"
4,1 to 100,"O=C1c2ccc(NCC3CCNCC3)cc2CCN1C[C@H](O)CN1CCc2ccccc2C1 [Example 31, 2-[(2R)-3-(3,4-dihydro-1H-isoquinolin-2-yl)-2-hydroxy-propyl]-6-(4-piperidylmethylamino)-3,4-dihydroisoquinolin-1-one]"
5,1 to 100,"CC(=O)N1CCN(c2ccc3c(c2)C(C)(C)CN(C[C@H](O)CN2CCc4ccccc4C2)C3=O)CC1 [Example 104, 6-(4-acetylpiperazin-1-yl)-2-[(2R)-3-(3,4-dihydro-1H-isoquinolin-2-yl)-2-hydroxy-propyl]-4,4-dimethyl-3H-isoquinolin-1-one]"
6,100 to 1000,"CC(C)(C)OC(=O)N1CC2CC1CN2c1ccc2c(c1)CCN(C[C@H](O)CN1CCc3ccccc3C1)C2=O (stereo partly drawn) [Example 72, tert-butyl 5-[2-[(2R)-3-(3,4-dihydro-1H-isoquinolin-2-yl)-2-hydroxy-propyl]-1-oxo-3,4-dihydroisoquinolin-6-yl]-2,5-diazabicyclo[2.2.1]heptane-2-carboxylate]"
7,1 to 100,"CN1CCN(c2ccc3c(c2)CCN(C[C@H](O)CN2CCc4ccccc4C2)C3=O)CC1=O [Example 55, 2-[(2R)-3-(3,4-dihydro-1H-isoquinolin-2-yl)-2-hydroxy-propyl]-6-(4-methyl-3-oxo-piperazin-1-yl)-3,4-dihydroisoquinolin-1-one]"
8,100 to 1000,"CCN1CCC(Oc2ccc3c(c2)CCN(C[C@H](O)CN2CCc4ccccc4C2)C3=O)C1 (stereo partly drawn) [Example 134, 2-[(2R)-3-(3,4-dihydro-1H-isoquinolin-2-yl)-2-hydroxy-propyl]-6-(1-ethylpyrrolidin-3-yl)oxy-3,4-dihydroisoquinolin-1-one]"
9,1 to 100,"N#CN1CCN(c2ccc3c(c2)CCN(C[C@H](O)CN2CCc4ccccc4C2)C3=O)CC1 [Example 101, 4-[2-[(2R)-3-(3,4-dihydro-1H-isoquinolin-2-yl)-2-hydroxy-propyl]-1-oxo-3,4-dihydroisoquinolin-6-yl]piperazine-1-carbonitrile]"
10,1 to 100,"O=C1c2ccc(N3CCn4ccnc4C3)cc2CCN1C[C@H](O)CN1CCc2ccccc2C1 [Example 102, 6-(6,8-dihydro-5H-imidazo[1,2-a]pyrazin-7-yl)-2-[(2R)-3-(3,4-dihydro-1H-isoquinoline-2-yl)-2-hydroxy-propyl]-3,4-dihydroisoquinolin-1-one]"
11,1 to 100,"COCCN(C)C1CCN(c2ccc3c(c2)CCN(C[C@H](O)CN2CCc4ccccc4C2)C3=O)CC1 [Example 120, 2-[(2R)-3-(3,4-dihydro-1H-isoquinolin-2-yl)-2-hydroxy-propyl]-6-[4-[2-methoxyethyl(methyl)amino]-1-piperidyl]-3,4-dihydroisoquinolin-1-one]"
12,100 to 1000,"CN(C)CC#Cc1ccc2c(c1)CCN(C[C@H](O)CN1CCc3ccccc3C1)C2=O [Example 141, 2-[(2R)-3-(3,4-dihydro-1H-isoquinolin-2-yl)-2-hydroxypropyl]-6-[3-(dimethylamino)prop-1-ynyl]-3,4-dihydroisoquinolin-1-one]"
13,1 to 100,"O=C1c2ccc(NCC3CCOCC3)cc2CCN1C[C@H](O)CN1CCc2ccccc2C1 [Example 23, 2-[(2R)-3-(3,4-dihydro-1H-isoquinolin-2-yl)-2-hydroxy-propyl]-6-(tetrahydropyran-4-ylmethylamino)-3,4-dihydroisoquinolin-1-one]"
14,100 to 1000,"CC1(C)CN(C[C@H](O)CN2CCc3ccccc3C2)C(=O)c2ccc(N3CCOCC3)cc21 [Example 112, 2-[(2R)-3-(3,4-dihydro-1H-isoquinolin-2-yl)-2-hydroxy-propyl]-4,4-dimethyl-6-morpholino-3H-isoquinolin-1-one]"
15,1 to 100,"CC(=O)N1CC2CC1CN2c1ccc2c(c1)CCN(C[C@H](O)CN1CCc3ccccc3C1)C2=O (stereo partly drawn) [Example 81, 6-(5-acetyl-2,5-diazabicyclo[2.2.1]heptan-2-yl)-2-[(2R)-3-(3,4-dihydro-1H-isoquinolin-2-yl)-2-hydroxy-propyl]-3,4-dihydroisoquinolin-1-one]"
